Earlier results on two compounds are cited in patent US6660287B1, “Prevention of spoilage of produce using acidified expanded amorphous aluminum silicate impregnated with chlorite” (Bio-Cide International, Inc., priority 1999, dated 2003).

The data set relates to mice.

As to `[O][Cl+][O-]` [chlorine dioxide], the “chromosomal aberrations or increased numbers of micronuclei in the bone marrow” value (subchronic and acute oral administration, mice (Meier et al.)) is “failed to induce any chromosomal aberrations or increased numbers of micronuclei”. For `OCl` [hypochlorite], the mutagenic potential entry (mouse, in vivo, po) was “weak positive effect”.
